Reference: article PMC11726677, “Eradication of Therapy-Resistant Cancer Stem Cells by Novel Telmisartan Derivatives” (Journal of Medicinal Chemistry, 2024)

What was measured:
STAT5 [1] = assay: Jess Simple Western immunoassay of STAT5/pSTAT5 in A2780 V SP cells; format: cell-based, human; conditions: 10 μM, 72 h
Procedure: (§1) The impact of STAT5 activation on the mode of action was investigated in selected solid tumor cell lines as well.
(§2) Protein extracts were prepared as previously described.[44] Protein expression was determined using the capillary-based Jess Simple Western detection system (ProteinSimple, BioTechne) according to the manufacturer’s instructions at default settings. […] Horseradish peroxidase (HRP)-conjugated secondary antirabbit antibody, which was included in the Jess Detection Module kit, was used. Data analysis was conducted using Compass for Simple Western 4.0 software (ProteinSimple, BioTechne).

STAT5 [2] = assay: Jess Simple Western immunoassay of STAT5/pSTAT5 in MCF7 cells; format: cell-based, human; conditions: MCF7, 10 μM, 72 h
Procedure: as §1, §2

IGROV-1 SP cells = assay: Chemosensitizing to paclitaxel: metabolic activity of IGROV-1 SP cells (MTT); format: cell-based, human; conditions: compound 10 μM + PTX 10 nM, 72 h
Procedure: (§3) The chemosensitizing efficacy was investigated in the ovarian and prostate cancer cell lines using the above-described metabolic activity assay. Paclitaxel (PTX) served as a reference (CTR) in A2780 V SP and IGROV-1 SP cells and docetaxel (DTX) in PC3-DR and D145-DR cells.
(§4) COS-7 (2 × 10^3 cells per well), IGROV-1 SP (2.5 × 10^3 cells per well), A2780 V SP (1.5 × 10^3 cells per well), PC3-DR (4 × 10^3 cells per well), and DU145-DR (3 × 10^3 cells per well) cells were seeded in 96-well plates in triplicates and after 24 h, the compounds were added at the respective concentrations. K562-R and K562 cells (2 × 10^4 cells per well), were treated with the compounds 2 h after seeding. […] A modified MTT colorimetric assay (EZ4U kit, Biomedica) was used to determine the metabolic activity of the tested cells, according to the manufacturer’s instructions. Absorbance was measured and the optical density of the respective FCS-containing medium and of the substrate was subtracted to exclude nonspecific staining. Metabolic activity in the absence of the compounds (CTR, DMSO) was set to 100% as reference.

STAT5 [3] = assay: Jess Simple Western immunoassay of STAT5/pSTAT5 in K562-R cells; format: cell-based, human; conditions: 4 μM + imatinib 1 μM, 6 h
Procedure: In the next step, the effects of the compounds (4 μM) on STAT5 in K562-R cells were examined.
as §2

PC3-DR cells (ABCB1+) = assay: SP analysis (DCV, flow cytometry) in PC3-DR cells; format: cell-based, human; conditions: 10 μM
Excerpt: (§5) In recent studies, we described the side population (SP) phenotype as a marker that defines a heterogeneous cellular compartment with stem cell-characteristics in various cancer cell lines derived from solid tumors, such as ovarian cancer, breast cancer, and lung cancer.[26],[27]

A2780 V SP cells = assay: Chemosensitizing to paclitaxel: metabolic activity of A2780 V SP cells (MTT); format: cell-based, human; conditions: compound 10 μM + PTX 10 nM, 72 h
Procedure: as §3, §4

MCF7 cells (ABCG2+) = assay: SP analysis (DCV, flow cytometry) in MCF7 cells; format: cell-based, human; conditions: MCF7, 10 μM
Excerpt: as §5

STAT5 [4] = assay: Jess Simple Western immunoassay of STAT5/pSTAT5 in IGROV-1 SP cells; format: cell-based, human; conditions: 10 μM, 72 h; for STAT5 protein expression: IGROV1 SP
Procedure: as §1, §2

K562-R cells [5] = assay: Chemosensitizing: metabolic activity of K562-R cells cotreated with imatinib (modified MTT assay); format: cell-based, human; conditions: 72 h
Procedure: (§6) The potential reduction in cell viability was determined using the modified MTT assay.
conc. 10 to 0.5 μM) over 72 h (Figure 3D).
as §4

[6] = test system: IGROV-1 SP cells (ABCB1+); assay: SP analysis (DCV, flow cytometry) in IGROV-1 SP cells; format: cell-based, human; conditions: 10 μM
Excerpt: as §5

STAT5 [7] = assay: Jess Simple Western immunoassay of STAT5/pSTAT5 in A549 cells; format: cell-based, human; conditions: A549, 10 μM, 72 h
Procedure: as §1, §2

DU145-DR cells (ABCB1+) = assay: SP analysis (DCV, flow cytometry) in DU145-DR cells; format: cell-based, human; conditions: 10 μM
Excerpt: as §5

[8] = test system: A2780 V SP cells (ABCB1+); assay: SP analysis (DCV, flow cytometry) in A2780 V SP cells; format: cell-based, human; conditions: 10 μM
Excerpt: as §5

ABCB1 [9] = assay: Jess Simple Western immunoassay of ABCB1 expression in K562-R cells; format: cell-based, human; conditions: 4 μM, 72 h
Procedure: as §2

A549 cells (ABCC1+) = assay: SP analysis (DCV, flow cytometry) in A549 cells; format: cell-based, human; conditions: A549, 10 μM
Excerpt: as §5

[10] = target: T1, ABCB1 transporter in K562-R cells (Homo sapiens, UniProt P08183); assay: Side population (SP) analysis, DCV staining, flow cytometry; conditions: 10 μM
T1 sequence (P08183 whole entry): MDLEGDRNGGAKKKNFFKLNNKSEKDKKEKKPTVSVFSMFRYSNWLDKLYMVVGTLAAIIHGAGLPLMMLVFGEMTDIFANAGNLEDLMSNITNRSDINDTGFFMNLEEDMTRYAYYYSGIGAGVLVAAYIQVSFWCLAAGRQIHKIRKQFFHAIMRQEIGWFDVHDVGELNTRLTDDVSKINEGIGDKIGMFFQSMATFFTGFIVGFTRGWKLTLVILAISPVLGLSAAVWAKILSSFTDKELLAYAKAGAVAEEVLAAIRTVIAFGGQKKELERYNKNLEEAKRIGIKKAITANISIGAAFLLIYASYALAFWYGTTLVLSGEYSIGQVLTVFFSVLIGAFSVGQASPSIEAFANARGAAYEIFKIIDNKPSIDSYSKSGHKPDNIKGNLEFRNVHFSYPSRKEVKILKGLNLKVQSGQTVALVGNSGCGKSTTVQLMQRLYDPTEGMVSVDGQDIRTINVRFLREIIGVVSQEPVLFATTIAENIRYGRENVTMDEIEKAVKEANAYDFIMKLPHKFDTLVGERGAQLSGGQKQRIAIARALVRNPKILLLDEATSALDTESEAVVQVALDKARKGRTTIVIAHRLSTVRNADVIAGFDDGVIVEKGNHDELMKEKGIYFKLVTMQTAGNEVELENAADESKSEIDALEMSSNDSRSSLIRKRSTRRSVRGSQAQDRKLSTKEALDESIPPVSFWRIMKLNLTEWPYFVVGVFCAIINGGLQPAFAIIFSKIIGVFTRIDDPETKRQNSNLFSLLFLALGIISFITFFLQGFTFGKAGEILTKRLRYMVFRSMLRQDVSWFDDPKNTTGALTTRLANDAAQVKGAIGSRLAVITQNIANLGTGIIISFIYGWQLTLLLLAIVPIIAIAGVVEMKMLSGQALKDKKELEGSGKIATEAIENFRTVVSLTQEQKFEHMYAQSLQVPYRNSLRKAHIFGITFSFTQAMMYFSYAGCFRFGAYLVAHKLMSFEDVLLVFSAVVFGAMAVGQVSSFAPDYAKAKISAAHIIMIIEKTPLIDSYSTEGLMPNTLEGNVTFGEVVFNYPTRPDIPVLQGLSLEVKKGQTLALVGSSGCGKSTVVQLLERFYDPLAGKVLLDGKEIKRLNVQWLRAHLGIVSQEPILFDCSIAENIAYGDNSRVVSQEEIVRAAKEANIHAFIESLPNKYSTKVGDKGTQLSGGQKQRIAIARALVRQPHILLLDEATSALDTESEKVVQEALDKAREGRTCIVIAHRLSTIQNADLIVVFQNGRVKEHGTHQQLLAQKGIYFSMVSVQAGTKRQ
Procedure: (§7) SP analyses were performed as previously described[45] on a LSRFortessa flow cytometer (BD Biosciences, Vienna, Austria). Briefly, 1 × 10^6 cells/mL were stained with 10 μM Vybrant DyeCycleTM Violet (DCV; Molecular Probes, Eugene, OR) in the presence or absence of the investigated compounds for 90 min at 37 °C. […] Subsequently, the cells were washed and immediately analyzed using flow cytometry. The FlowJo 9.6 software was used for data analyses (Tree Star Software, Ashland, CA).

[11] = set-up: method as in PMID 32759366; conditions: rat hepatocytes ref 30; cited from earlier work
[12] = set-up: method as in PMID 23054986; conditions: cited from earlier work
DU145-DR cells = assay: Chemosensitizing to docetaxel: metabolic activity of DU145-DR cells (MTT); format: cell-based, human; conditions: compound 10 μM + DTX 12.5 nM, 72 h
Procedure: as §3, §4

ABCB1 [13] = test system: ABCB1; set-up: method as in Weiss et al. 38; conditions: ref Weiss et al. 38; cited from earlier work
[14] = target: T1, ABCB1 transporter in K562-R cells; conditions: 90 min, 10 μM
Procedure: as §7

[15] = test system: primary human CML patient samples; assay: Colony forming cell (CFC) assay, primary CML patient samples; format: cell-based; conditions: together with 1 μM of imatinib, once at the beginning of the 14 day assay; compound 10 μM
Excerpt: Frozen peripheral blood mononuclear cells (PBMC) from TKI naïve CML patients and healthy controls were used for the CFC assay as described previously.[46] Briefly, thawed cells were resuspended a semisolid medium (Enriched MethocCult H4435, Stem Cell Technologies) supplemented with the respective compounds and cultured in small culture dishes for 2 weeks. Colonies were counted using an inverted microscope.

[16] = not told; cited from earlier work
K562-R cells [17] = assay: Metabolic activity of K562-R cells, compounds alone (modified MTT assay); format: cell-based, human; conditions: 10 μM, 72 h, without imatinib; vehicle control = 100%
Procedure: as §6
First, the compounds (10 μM) were applied alone to evaluate their effects per se.
as §4

PC3-DR cells = assay: Chemosensitizing to docetaxel: metabolic activity of PC3-DR cells (MTT); format: cell-based, human; conditions: compound 10 μM + DTX 12.5 nM, 72 h
Procedure: as §3, §4

Compound	viability / antimetabolic effect in combination with PTX (IGROV-1 SP cells)	effect on SP phenotype (PC3-DR cells (ABCB1+))	chemosensitizing to PTX therapy (A2780 V SP cells)	effect on SP phenotype (MCF7 cells (ABCG2+))	STAT5 protein expression (STAT5 [4])	metabolic activity of K562-R cells, combination with imatinib (K562-R cells [5]; compound 10 μM + imatinib 1 μM)	effect on SP phenotype [6]	effect on SP phenotype (DU145-DR cells (ABCB1+))	effect on SP phenotype [8]	effect on SP phenotype (A549 cells (ABCC1+))	further results
CCCc1nc2ccccc2n1Cc1ccc(-c2ccc(C(N)=O)cc2)cc1 [6c, 4′-((2-Propyl-1H-benzo[d]imidazole-1-yl)methyl)-[1,1′-biphenyl]-4-carboxamide]	increased the antimetabolic effect of PTX	effectively targeted the SP phenotype	particularly sensitized	nearly inactive	significantly suppressed STAT5	8–24%	effectively targeted the SP phenotype	effectively targeted the SP phenotype	effectively targeted the SP phenotype	nearly inactive	phosphorylation status of STAT5 (STAT5 [1]): efficiently repressed the phosphorylation status of STAT5; phosphorylation status of STAT5 (STAT5 [2]): efficiently repressed the phosphorylation status of STAT5; phosphorylation of STAT5 (STAT5 [3]): marked repression of the STAT5 phosphorylation; phosphorylation status of STAT5 (STAT5 [4]; IGROV-1 SP): efficiently repressed the phosphorylation status of STAT5; EC50 (K562-R cells [5]; K562-R, + imatinib 1 μM, read-out: SC50 (drug concentration eliciting 50% of the maximum sensitizing effect)): 1490 nM; phosphorylation status of STAT5 (STAT5 [7]): efficiently repressed the phosphorylation status of STAT5; ABCB1 protein expression (ABCB1 [9]): none of the compounds abrogated the ABCB1 protein expression; effect on SP phenotype / ABCB1 activity [10]: efficiently reduced the ABCB1 activity; relation of SP and NSP [10]: about 50%
CCCc1nc2c(C)cc(-c3nc4ccccc4n3C)cc2n1Cc1ccc(-c2ccccc2C(=O)O)cc1 [7a, telmisartan]	increased the antimetabolic effect of PTX	only modestly affected	least active chemosensitizer	significantly inhibited the SP phenotype	significantly suppressed STAT5	34–58%	only modestly affected	only modestly affected	only modestly affected	significantly inhibited the SP phenotype	CLint [11]: about 23 μL/min/10^6 cells; reported aqueous solubility [12]: 9.9 µg/mL; chemosensitizing to DTX (antimetabolic activity) (DU145-DR cells): did not significantly reduce the metabolic activity; inhibition of ABCB1 (ABCB1 [13]): impeded ABCB1; metabolic activity of K562-R cells, combination with imatinib (K562-R cells [5]; compound 8 μM + imatinib 1 μM): 55%; percentage of cells within SP gate [14]: 76.0%; number of colonies (CFC) [15]: virtually ineffective; apparent permeability coefficient (Papp) [16]: 29 10^–6 cms^–1; metabolic activity of K562-R cells, compound alone (K562-R cells [17]): inactive; chemosensitizing to DTX (antimetabolic activity) (PC3-DR cells): only marginally increased the antimetabolic activity of DTX
